Residues, ends and D or L forms follow the SMILES beside them. *: point of attachment. AMC = Cc1cc(=O)oc2cc(N*)ccc12; Cbz = O=C(OCc1ccccc1)*
Columns and labels:
rSeCP [1] = target: T1, rSeCP (Spirometra erinaceieuropaei, UniProt O02586); experiment: fluorogenic peptidase assay, Z-Phe-Arg-AMC; format: biochemical
T1 construct: MBP fusion (pMAL-c2X, E. coli TB1), 19-residue signal peptide omitted, proform 36 kDa plus MBP 43 kDa, 79 kDa, tag kept; full-length ORF 336 residues
Source text: fluorogenic peptidase assay, Z-Phe-Arg-AMC on rSeCP

rSeCP [2] = target: T1, rSeCP; experiment: AMC fluorescence, […] nm; format: biochemical; details: 3 μM substrate, 100 mM sodium acetate, 5 mM DTT, pH 5.5, 37°C

T1 sequence (O02586 entry or part of it): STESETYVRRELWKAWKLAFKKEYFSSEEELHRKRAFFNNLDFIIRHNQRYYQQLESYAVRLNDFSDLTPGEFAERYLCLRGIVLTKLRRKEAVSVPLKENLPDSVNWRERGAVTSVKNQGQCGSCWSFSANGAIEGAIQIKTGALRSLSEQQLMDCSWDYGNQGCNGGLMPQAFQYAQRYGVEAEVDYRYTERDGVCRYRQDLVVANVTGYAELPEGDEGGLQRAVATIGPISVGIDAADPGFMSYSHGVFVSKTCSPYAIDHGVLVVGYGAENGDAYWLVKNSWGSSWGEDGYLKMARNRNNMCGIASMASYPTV

Molecule `CC(C)C[C@H](NC(=O)[C@H]1O[C@@H]1C(=O)O)C(=O)NCCCCN=C(N)N` [E-64, L-trans-epoxysuccinyl-leucylamide (4-guanidino) butane] has an activity at 5 µM (rSeCP [1]) of 0.8%.

For `Cc1cc(=O)oc2cc(NC(=O)[C@H](CCCNC(=N)N)NC(=O)[C@H](Cc3ccccc3)NC(=O)OCc3ccccc3)ccc12` [Z-Phe-Arg-AMC, Z-carbobenzoxy-L-phenylalanyl-L-arginine-(7-amino-4-methylcoumarin)] (Cbz-Phe-Arg-{AMC}), the “AMC fluorescence, 355/460 nm” value (rSeCP [2]) was “determined by cleavage of the fluorescent substrate Z-carbobenzoxy-L-phenylalanyl-L-arginine-(7-amino-4-methylcoumarin) (Z-Phe-Arg-AMC, Sigma)”.

Source: article PMC4457932, “Characterization of Spirometra erinaceieuropaei Plerocercoid Cysteine Protease and Potential Application for Serodiagnosis of Sparganosis” (PLoS Neglected Tropical Diseases, 2015)
